Measured values from US8889705B2, “Noscapine analogs and their use in treating cancers” (Emory University, priority 2007, dated 2014).

What was measured:
[1] = system: 1A9 cells; experiment: Sulforhodamine B cell proliferation assay; format: cell-based; conditions: Homo sapiens; 1A9, 72 hours, SRB
Experimental: (§1) Sulforhodamine B assay: The cell proliferation assay was performed in 96-well plates as described previously (Skehan et al., 1990; Zhou et al., 2003). Adherent cells (1A9 and 1A9/PTX22) were seeded in 96-well plates at a density of 5×10^3 cells per well. They were treated with increasing gradient concentrations of 9-nitro-nos the next day while in log-phase growth. After 72 hours of drug treatment, cells were fixed with 50% trichloroacetic acid and stained with 0.4% sulforhodamine B dissolved in 1% acetic acid. Cells were then washed with 1% acetic acid to remove unbound dye. The protein-bound dye was extracted with 10 mM Tris base to determine the optical density at 564-nm wavelength.

[2] = system: 1A9/PTX22 cells; experiment: Sulforhodamine B cell proliferation assay; format: cell-based; conditions: Homo sapiens, 1A9/ptx-22; 1A9/PTX22, 72 hours, SRB
Experimental: as §1

[3] = system: CEM/VM-1-5 cells; experiment: In vitro cell proliferation MTS assay; format: cell-based; conditions: Homo sapiens, CEM/VM-1-5, 72 hours
Experimental: (§2) Suspension cells (CEM, CEMNLB100 and CEM/VM-1-5) were cultured in RPMI-1640 media containing 10% FBS and then seeded into 96-well plates at a density of 5×10^3 cells per well and were treated with increasing gradient concentrations of 9-nitro-nos for 72 hours. Measurement of cell proliferation was performed colorimetrically by 3-(4,5-dimethylthiazol-2-yl)-5-(3-carboxymethoxyphenyl)-2-(4-sulphophenyl)-2H-tetrazolium, inner salt (MTS) assay, using the CellTiter96 AQueous One Solution Reagent (Promega, Madison, Wis.). Cells were exposed to MTS for 3 hours and absorbance was measured using a microplate reader (Molecular Devices, Sunnyvale, Calif.) at an optical density (OD) of 490 nm. The percentage of cell survival as a function of drug concentration for both the assays was then plotted to determine the IC50 value, which stands for the drug concentration needed to prevent cell proliferation by 50%.

[4] = system: CEM/VLB100 cells; experiment: In vitro cell proliferation MTS assay; format: cell-based; conditions: Homo sapiens, CEM/VLB100, 72 hours
Experimental: as §2

[5] = system: CEM cells; experiment: In vitro cell proliferation MTS assay; format: cell-based; conditions: Homo sapiens, CCRF-CEM, 72 hours
Experimental: as §2
as §2, with “(CEM)” for “(CEM, CEMNLB100 and CEM/VM-1-5)”, “were” for “were cultured in RPMI-1640 media containing 10% FBS and then”, “increasing” for “increasing gradient”, “all halogenated analogs” for “9-nitro-nos”

[6] = system: CEM/VLB100 cells; experiment: Cell cycle analysis (propidium iodide, flow cytometry); format: cell-based, human; conditions: CEM/VLB100, 25 μM
Experimental: (§3) The flow cytometric evaluation of the cell cycle status was performed as described previously (Zhou et al., 2003). Briefly, 2×10^6 cells were centrifuged, washed twice with ice-cold PBS, and fixed in 70% ethanol. Tubes containing the cell pellets were stored at 4° C. for at least 24 hours. Cells were then centrifuged at 1000×g for 10 min and the supernatant was discarded. The pellets were washed twice with 5 ml of PBS and then stained with 0.5 ml of propidium iodide (0.1% in 0.6% Triton-X in PBS) and 0.5 ml of RNase A (2 mg/ml) for 45 minutes in dark. Samples were then analyzed on a FACSCalibur flow cytometer (Beckman Coulter Inc., Fullerton, Calif.).

[7] = system: 1A9 cells; experiment: as above; format: cell-based, human; conditions: 1A9, 50 μM
Experimental: as §3

[8] = system: 1A9/PTX22 cells; experiment: as above; format: cell-based, human; conditions: 1A9/PTX22, 50 μM
Experimental: as §3

## COc1ccc2c(c1OC)C(=O)O[C@@H]2[C@H]1c2c(c([N+](=O)[O-])c3c(c2OC)OCO3)CCN1C [9-nitro-nos, (S)-6,7-dimethoxy-3-((R)-4-methoxy-6-methyl-9-nitro-5,6,7,8-tetrahydro-[1,3]dioxolo[4,5-g]isoquinolin-5-yl)isobenzofuran-1(3H)-one]
[1]
  IC50: 30.1 µM
[2]
  IC50: 27.5 µM
[3]
  IC50: 6.9 µM
[4]
  IC50: 8.1 µM
[5]
  IC50: 10 µM
[6]; 0 h
  G0/G1: 46.9%
  G2/M: 25.7%
  S: 17.6%
  Sub-G1: 3.6%
[6]; 24 h
  G0/G1: 25.5%
  G2/M: 36.0%
  S: 17.7%
  Sub-G1: 14.8%
[6]; 48 h
  G0/G1: 23.7%
  G2/M: 30.2%
  S: 9.3%
  Sub-G1: 30.7%
[6]; 72 h
  G0/G1: 8.7%
  G2/M: 12.5%
  S: 4.5%
  Sub-G1: 56.1%
[7]; 0 h
  G0/G1: 50.0%
  G2/M: 21.2%
  S: 21.8%
  Sub-G1: 0.7%
[7]; 24 h
  G0/G1: 30.6%
  G2/M: 34.2%
  S: 14.3%
  Sub-G1: 12.0%
[7]; 48 h
  G0/G1: 28.6%
  G2/M: 17.2%
  S: 10.6%
  Sub-G1: 38.0%
[7]; 72 h
  G0/G1: 16.7%
  G2/M: 9.0%
  S: 9.6%
  Sub-G1: 56.3%
[8]; 0 h
  G0/G1: 57.0%
  G2/M: 20.4%
  S: 8.8%
  Sub-G1: 3.5%
[8]; 24 h
  G0/G1: 27.3%
  G2/M: 31.4%
  S: 4.7%
  Sub-G1: 30.0%
[8]; 48 h
  G0/G1: 5.9%
  G2/M: 44.3%
  S: 3.4%
  Sub-G1: 44.6%
[8]; 72 h
  G0/G1: 14.1%
  G2/M: 13.7%
  S: 5.7%
  Sub-G1: 59.0%
